From patent publication EP0750618B1, “OXAZOLIDINONE DERIVATIVES AND PHARMACEUTICAL COMPOSITIONS CONTAINING THEM” (priority 1994, dated 1995)
≈ marks a conversion by molar mass, not a printed value.

How the values were obtained:
Experiment in all cases: MIC test, standard agar dilution method
[1] = system: Staphylococcus epidermidis (UC 12084); assay type: cell-based; settings: UC12084, incubated overnight at 35°C, read-out: Minimum Inhibitory Concentrations (MIC) S. enidermidis
Staphylococcus aureus = settings: UC9213, read-out: Minimum Inhibitory Concentrations (MIC) S. aureus
[2] = system: Streptococcus pyogenes (UC 152); settings: UC152, read-out: Minimum Inhibitory Concentrations (MIC) S. pyogenes

Compound	MIC [1] [µg/mL]	MIC (Staphylococcus aureus) [µg/mL]	MIC [2] [µg/mL]
CC(=O)NC[C@H]1CN(c2ccc(N3CCC(N)CC3)c(F)c2)C(=O)O1 [Compound No. 6, (S)-N-{3-[4-(4-amino-piperidin-1-yl)-3-fluoro-phenyl]-2-oxo-oxazolidin-5-ylmethyl}-acetamide]	32 (≈ 91.3 µM)	> 64	1 (≈ 2.85 µM)
CC(=O)NC[C@H]1CN(c2ccc(N3CCC(N(C)C)CC3)c(F)c2)C(=O)O1 [Compound No. 67, (S)-N-{3-[4-(4-dimethylamino-piperidin-1-yl)-3-fluoro-phenyl]-2-oxo-oxazolidin-5-ylmethyl}-acetamide]	2 (≈ 5.28 µM)	32 (≈ 84.6 µM)	1 (≈ 2.64 µM)
COCOCC1COC2(CCN(c3ccc(N4C[C@H](CNC(C)=O)OC4=O)cc3F)CC2)O1 (stereo partly drawn) [compound 57, (S)-N-(3-{3-fluoro-4-[2-(methoxymethoxy-methyl)-1,4-dioxa-8-aza-spiro[4.5]dec-8-yl]-phenyl}-2-oxo-oxazolidin-5-ylmethyl)-acetamide]	4 (≈ 8.56 µM)	16 (≈ 34.2 µM)	8 (≈ 17.1 µM)
CC(=O)NC[C@H]1CN(c2ccc(N3CCC(CO)CC3)c(F)c2)C(=O)O1 [Compound No. 4, (S)-N-{3-[3-fluoro-4-(4-hydroxymethyl-piperidin-1-yl)-phenyl]-2-oxo-oxazolidin-5-ylmethyl}-acetamide]	2 (≈ 5.47 µM)	8 (≈ 21.9 µM)	2 (≈ 5.47 µM)
COCCNC1CCN(c2ccc(N3C[C@H](CNC(C)=O)OC3=O)cc2F)CC1 [compound 64, (S)-N-(3-{3-fluoro-4-[4-(2-methoxy-ethylamino)-piperidin-1-yl]-phenyl}-2-oxo-oxazolidin-5-ylmethyl)-acetamide]	2 (≈ 4.9 µM)	32 (≈ 78.3 µM)	1 (≈ 2.45 µM)
COC(=O)CON=C1CCN(c2ccc(N3C[C@H](CNC(C)=O)OC3=O)cc2F)CC1 [compound 47, (S)-(1-{4-[5-(acetylamino-methyl)-2-oxo-oxazolidin-3-yl]-2-fluoro-phenyl}-piperidin-4-ylideneaminooxy)-acetic acid methyl ester]	1 (≈ 2.29 µM)	8 (≈ 18.3 µM)	2 (≈ 4.58 µM)
CC(=O)NC[C@H]1CN(c2ccc(N3CCC(=NNC(=N)N)CC3)c(F)c2)C(=O)O1 [compound 42, (S)-N-{3-[3-fluoro-4-(4-amidinohydrazono-piperidin-1-yl)-phenyl]-2-oxo-oxazolidin-5-ylmethyl}-acetamide]	2 (≈ 4.93 µM)	8 (≈ 19.7 µM)	0.5 (≈ 1.23 µM)
CC(=O)NC[C@H]1CN(c2ccc(N3CCC4(CC3)OCCO4)c(F)c2)C(=O)O1 [compound 28, (S)-N-{3-[4-(1,4-dioxa-8-aza-sprio[4.5]dec-8-yl)-3-fluoro-phenyl]-2-oxo-oxazolidin-5-ylmethyl}-acetamide]	2 (≈ 5.08 µM)	8 (≈ 20.3 µM)	4 (≈ 10.2 µM)
C=CCON=C1CCN(c2ccc(N3C[C@H](CNC(C)=O)OC3=O)cc2F)CC1 [Compound No. 58, (S)-N-{3-[4-(4-allyloxyimino-piperidin-1-yl)-3-fluoro-phenyl]-2-oxo-oxazolidin-5-ylmethyl}-acetamide]	1 (≈ 2.47 µM)	8 (≈ 19.8 µM)	2 (≈ 4.95 µM)
CC(=O)NC[C@H]1CN(c2ccc(N3CCC(=NOC(=O)COC(C)=O)CC3)c(F)c2)C(=O)O1 [compound 43, (S)-N-{3-[3-fluoro-4-(4-acetoxyacetoxyimino-piperidin-1-yl)-phenyl]-2-oxo-oxazolidin-5-ylmethyl}-acetamide]	0.5 (≈ 1.08 µM)	4 (≈ 8.61 µM)	1 (≈ 2.15 µM)
CCOC(=O)CC(=O)NN=C1CCN(c2ccc(N3C[C@H](CNC(C)=O)OC3=O)cc2F)CC1 [compound 56, (S)-(1-{4-[5-(acetylamino-methyl)-2-oxo-oxazolidin-3-yl]-2-fluorophenyl}-piperidin-4-ylidenehydrazinocarbonyl)-acetic acid ethyl ester]	1 (≈ 2.09 µM)	4 (≈ 8.38 µM)	2 (≈ 4.19 µM)
CC(=O)NC[C@H]1CN(c2ccc(N3CCC(C(C)=O)CC3)c(F)c2)C(=O)O1 [compound 36, (S)-N-{3-[4-(4-acetyl-piperidin-1-yl)-3-fluoro-phenyl]-2-oxo-oxazolidin-5-ylmethyl}-acetamide]	1 (≈ 2.65 µM)	4 (≈ 10.6 µM)	2 (≈ 5.3 µM)
